Read-outs that look alike come from different tables or passages of the source.
Legend:
[1] = system: mast cell activation induced by FcγR cross-linking (CHMC cells); experiment: LD Tryptase CHMC: tryptase release assay; assay type: cell-based, Human; settings: for inhibition in tryptase assay, in words: prodrug
Procedure: Compounds are assayed for inhibition of mast cell activation induced by FcγR cross-linking by measuring the activity of tryptase released upon degranulation as follows:
Human mast cells are cultured and differentiated from CD38-negative progenitor cell as described in U.S. Patent Publication No. 2005/0234049, which is hereby incorporated herein by reference in its entirety. For example, 65 μL of various concentrations of the test compound are prepared in MT (137 mM NaCl, 2.7 mM KCl, 1.8 mM CaCl2, 1.0 mM MgCl2, 5.6 mM Glucose, 20 mM Hepes (pH 7.4), 0.1% Bovine Serum Albumin, (Sigma, #A4503)) containing 2% MeOH and 1% DMSO, or control buffer are added to duplicate 96-well V-bottom plates. Pelleted and re-suspended (in warm MT) CHMC cells (65 μL) are added to each 96-well plate, mixed and incubated for 1 hour at 37° C. […] MT (25 μL) is added to control wells. After a 60-minute incubation at 37° C., cells and cell debris were pelleted by centrifugation at 1000 rpm for 10 min and tryptase and leukotriene C4 levels are measured.
To measure tryptase levels, 25 μL of supernatant from each well is transferred to a fresh 96-well black bottom plate, to which 100 μL of fresh tryptase substrate solution [(Z-Ala-Lys-Arg-AMC2TFA; Enzyme Systems Products, #AMC-246)]1:2000 in tryptase assay buffer [0.1M Hepes (pH 7.5), 10% w/v Glycerol, 10 μM Heparin (Sigma H-4898) 0.01% NaN3] is added. After 30 minutes incubation at room temperature, the optical density of the plates is measured at 355 nm/460 nm on a spectrophotometric plate reader.
Compounds of the disclosure were assayed for their ability to inhibit mast cell activation induced by FcγR cross-linking by measuring the activity of tryptase released upon degranulation.

[2] = system: allergen induced basophil degranulation; experiment: CD63 Assay (BASOTEST, FACS, whole blood, anti-IgE); assay type: cell-based; settings: whole blood, anti-IgE; Table 2, unit inferred
Procedure: Compounds are tested for the ability to inhibit allergen induced basophil degranulation. The BASOTEST® kit (Orpegen Pharma GmbH, #10-0500) is used in this assay. In a 5 mL FACS tube 105 μL of Heparinized whole blood, 25 μL of test compound solution (in DMSO) are incubated at room temperature for 30-60 minutes. To induce degranulation, 20 μL stimulation buffer (Reagent B) is added, and the tube is incubated for 10 min in a 37° C. water bath. Then, 100 μL of anti-IgE (2 μg/mL) is added, or 100 µL of washing solution (reagent A) is added (i.e., as a negative control). The tube is incubated for 20 min in a 37° C. water bath. Degranulation is then stopped by incubation on ice for 5 min. 20 μL of staining reagent (reagent F) is added, and the tube is incubated on ice in the dark for 20 min. 2 mL of room temperature lysing solution is added, and the tube is incubated at room temperature for 10 min. The tubes are spun down at 4° C. for 5 min at 1600 rpm, and the supernatant is discarded. 3 mL washing solution (reagent A) is added, and the tubes spun down at 4° C. for 5 min at 1600 rpm, and the supernatant is discarded. 200 μL washing solution is added to the remaining cell pellet, and the samples are incubated on ice in the dark until analysis (within 2 h). Analysis is performed using flow cytometry at 488 nm using the conditions specified in the BASOTEST® kit instructions to determine percentage of activated basophilic granulocytes.

[3] = human mast cells, anti-IgG stimulation, read-out: IC50 (LD Tryptase CHMC)

CC1(C)Oc2ccc(Nc3nc(Nc4ccc(N5CCOCC5)nc4)ncc3F)nc2N(COP(=O)([O-])[O-])C1=O.[Na+].[Na+] [Compound 2, N4-[2,2-Dimethyl-4-[(dihydrogenphosphonoxy)methyl]-3-oxo-5-pyrido[1,4]oxazin-6-yl]-5-fluoro-N2-(6-morpholinopyridin-3-yl)-2,4-pyrimidinediamine disodium salt]
IC50 [1, 3]: 21900 nM
inhibition in tryptase assay, in words [1]: only micromolar inhibition

CC1(C)Oc2ccc(Nc3nc(Nc4ccc(N5CCOCC5)cc4)ncc3F)nc2N(COP(=O)([O-])[O-])C1=O.[Na+].[Na+] [Compound 4, N4-[2,2-Dimethyl-4-[(dihydrogenphosphonoxy)methyl]-3-oxo-5-pyrido[1,4]oxazin-6-yl]-5-fluoro-N2-(4-morpholinophenyl)-2,4-pyrimidinediamine disodium salt]
IC50 [1, 3]: 2360 nM
inhibition in tryptase assay, in words [1]: only micromolar inhibition

COc1cc(Nc2ncc(F)c(Nc3ccc4c(n3)NC(=O)C(C)(C)O4)n2)cc(OC)c1OC [N4-(2,2-Dimethyl-3-oxo-4H-5-pyrido[1,4]oxazin-6-yl)-5-fluoro-N2-(3,4,5-trimethoxyphenyl)-2,4-pyrimidinediamine, reference compound]
IC50 [2]: 930 nM
IC50 ([1]; Homo sapiens, Mast cell, Table 2, unit inferred, read-out: LD Tryptase CHMC): 40 nM

Reference: US8642593B2, “2,4-pyrimidinediamine compounds and prodrugs and their uses” (Rigel Pharmaceuticals, Inc., priority 2009, dated 2014)
